According to patent publication US20240165247A1, “NEW PEPTIDE CONJUGATES” (JIANGYIN USUN PHARMACEUTICAL CO., LTD., priority 2021, published 2024):

Tested on: dental ulcer of the patient
Test: Dental treatment: solution sprayed onto dental ulcer of a patient, pain relief
Format: in vivo, human
Conditions: 1 mg/mL solution in normal saline
Method: A 1 mg/mL solution of the title compound of Example 1 was prepared in normal saline.
The resultant solution was sprayed using a standard spray device onto the dental ulcer of the patient. Pain relief occurred within 1 minute. The duration of pain relief was about 3 hours.

## Ala-Lys-Pro-Ser-Tyr-Hyp-Thr-Tyr-Hyp-Lys-Procaine [Example 1]
  Duration of pain relief: about 3 hours
  Time to occurrence of pain relief: ≤ 1 min
